The results in this text go back to the NIST ThermoML archive (doi:10.1021/acs.jced.6b00092).

The structures appear in SMILES notation. ± gives the expanded uncertainty stated by the source.

The conditions of data set [1]: Liquid; for mass density: 298.15 K, 101.33 kPa, Vibrating tube method; for vapor or sublimation pressure / Normal boiling temperature: Ebulliometric method (Recirculating still).
A short description of data set [2]: refractive index (Na D-line) (dimensionless). Particulars: 298.15 K; 101.33 kPa; Liquid; Standard Abbe refractometry.

Turning to `OCCCCO` [1,4-butanediol], in data set [1], the mass density is given as 1012.96 ± 10 kg/m3. The “vapor or sublimation pressure” value in data set [1] (473.44 K) was 40 ± 7 kPa; in data set [1] (485.11 K) it was 60 ± 8 kPa; in data set [1] (493.78 K), 80 ± 9 kPa. The Normal boiling temperature in data set [1] came to 227.93 ± 4 °C. Further, in data set [2], the refractive index is on record as 1.4447 ± 0.0004.

As to `CC(O)CC(C)(C)O` (stereo not drawn) [2-methyl-2,4-pentanediol], the mass density in data set [1] is given as 915.6 ± 10 kg/m3. Further, the “vapor or sublimation pressure” value in data set [1] (442.09 K) was 40 ± 7 kPa; in data set [1] (453.84 K), 60 ± 8 kPa; in data set [1] (462.67 K), 80 ± 9 kPa. In addition, the Normal boiling temperature in data set [1] was determined as 197.30 ± 4 °C. Further, the refractive index in data set [2] worked out at 1.4265 ± 0.0004.

For the compound `CC(C)CCO` [3-methylbutan-1-ol], the mass density in data set [1] is recorded as 807.3 ± 10 kg/m3. Further, the “vapor or sublimation pressure” value is recorded as 40 ± 8 kPa in data set [1] (379.01 K), 60 ± 12 kPa in data set [1] (389.52 K) and 80 ± 16 kPa in data set [1] (397.48 K). Further, the Normal boiling temperature in data set [1] came out at 130.70 ± 4 °C. Also, the refractive index in data set [2] was 1.4055 ± 0.0004.

A word on the mass density: it is mass per unit of volume. The term vapor or sublimation pressure denotes the equilibrium pressure above the liquid or solid. The term refractive index denotes the speed of light in vacuum divided by its phase velocity in the sample.
